≈ marks a conversion by molar mass, not a printed value.

In ChEMBL document CHEMBL1125081, “Stereospecific synthesis and antiviral properties of different enantiomerically pure carbocyclic 2'-deoxyribonucleoside analogues derived from common chiral pools: (+)-(1R,5S)- and (-)-(1S,5R)-2-oxabicyclo[3.3.0]oct-6-en-3-one” (1990) one finds MIC data, which are given here for eleven compounds.

Test [1] relates to Human immunodeficiency virus 1. In words: Evaluated for minimum inhibitory concentration (MIC) against MT-4 cells of human immunodeficiency virus type-1 (HIV-1). It counts as functional, MT4.
The test system of the next test is HeLa. Put plainly: Evaluated for minimum inhibitory concentration against HeLa cells (human carcinoma) infected with VSV, Coxs, B4, polio-1 virus. It counts as functional.
Test [2] relates to Human alphaherpesvirus 1. In words: Evaluated for minimum inhibitory concentration against KOS, F, McIntyre strains of Herpes simplex virus (HSV-1) in primary rabbit kidney cells. It counts as functional.
Test [3] deals with Human alphaherpesvirus 1. Put plainly: Evaluated for minimum inhibitory concentration against TK-B2006 strain of Herpes simplex virus (HSV-1) in primary rabbit kidney cells. The class given is functional.
The test system of another test is Human alphaherpesvirus 2. In words: Evaluated for minimum inhibitory concentration against G,196, Lyons strains of Herpes simplex virus (HSV-2) in primary rabbit kidney cells. The class given is functional.
Test [4] relates to Vesicular stomatitis virus. Put plainly: Evaluated for minimum inhibitory concentration (MIC) against Vesicular stomatitis virus (VSV). The class given is functional.
For the next test, the system named is Vero. Put plainly: Evaluated for minimum inhibitory concentration against Vero cells (African green monkey) infected with PV-3, RV-1, SV, Coxs B4, SFV virus. The class given is functional. As to conditions: Chlorocebus sabaeus.
For the next test, the system named is Vaccinia virus. In words: Evaluated for minimum inhibitory concentration against Vaccinia virus (VV) in primary rabbit kidney cells. As to conditions: Orthopoxvirus vaccinia. It counts as functional.
For test [5], the system named is Vesicular stomatitis virus. In words: Evaluated for minimum inhibitory concentration against Vesicular stomatitis virus (VSV) in primary rabbit kidney cells. It counts as functional.

For `Cc1cn([C@H]2C[C@H](O)[C@@H](CO)[C@@H]2C)c(=O)[nH]c1=O`, the MIC in test [1] was above 250 µg/mL; in the test with HeLa, above 400 µg/mL; in the test on Human alphaherpesvirus 1 [2], above 400 µg/mL; in the test with Human alphaherpesvirus 1 [3] it was above 400 µg/mL; against Human alphaherpesvirus 2, above 400 µg/mL; in [4] it was above 400 µg/mL. In addition, the MIC against Vero and against Vaccinia virus was above 400 µg/mL throughout.
Take `Cc1cn([C@H]2CC[C@@H](CO)C2)c(=O)[nH]c1=O`: the MIC is above 250 µg/mL in test [1]; above 400 µg/mL in the test with HeLa; above 400 µg/mL against Human alphaherpesvirus 1 [2]; above 400 µg/mL against Human alphaherpesvirus 1 [3]; above 400 µg/mL against Human alphaherpesvirus 2; above 400 µg/mL in test [5]. The MIC in the test on Vero and against Vaccinia virus was above 400 µg/mL throughout.
`Cc1cn([C@@H]2C[C@H](CO)[C@H](O)C2)c(=O)[nH]c1=O`: the MIC in test [1] is above 250 µg/mL; against HeLa it was above 400 µg/mL; with Human alphaherpesvirus 1 [2] it was above 400 µg/mL; in the test with Human alphaherpesvirus 1 [3], above 400 µg/mL; in the test on Human alphaherpesvirus 2 it was above 400 µg/mL; in test [5] it was above 400 µg/mL. Moreover, the MIC against Vero is above 200 µg/mL; against Vaccinia virus it was above 400 µg/mL.
As for `Cc1cn([C@H]2C[C@@H](CO)[C@H](O)C2)c(=O)[nH]c1=O`, the MIC was above 160 µg/mL in test [1]; above 100 µg/mL against HeLa; above 400 µg/mL in the test with Human alphaherpesvirus 1 [2]; above 400 µg/mL in the test with Human alphaherpesvirus 2; above 400 µg/mL in [5]; above 400 µg/mL against Vero. In the test on Vaccinia virus, the MIC was above 400 µg/mL.
On to `NC(=O)c1ncn([C@@H]2O[C@H](CO)[C@@H](O)[C@H]2O)n1` [RIBAVIRIN], for which the MIC in the test on HeLa is 20 µg/mL (≈ 81.9 µM); against Human alphaherpesvirus 1 [2], above 400 µg/mL; with Human alphaherpesvirus 1 [3] it was above 400 µg/mL; against Human alphaherpesvirus 2, above 400 µg/mL; in test [5] it was 300 µg/mL (≈ 1230 µM); in the test on Vero it was 150 µg/mL (≈ 614 µM). In the test with Vaccinia virus, this compound gave an MIC of 10 µg/mL (≈ 40.9 µM).
For `Nc1ncnc2c1ncn2[C@@H]1C[C@H](CO)[C@@H](O)C1`, the MIC is above 50 µg/mL in test [1]; above 100 µg/mL against HeLa; 2 µg/mL (≈ 8.02 µM) against Human alphaherpesvirus 1 [2]; 100 µg/mL (≈ 401 µM) in the test on Human alphaherpesvirus 1 [3]; 20 µg/mL (≈ 80.2 µM) in the test with Human alphaherpesvirus 2; above 400 µg/mL in [5]. For the same compound, the results for the MIC in the test on Vero and in the test on Vaccinia virus were above 100 µg/mL and 100 µg/mL (≈ 401 µM), respectively.
In test [1], `Cc1cn([C@H]2C[C@H](N=[N+]=[N-])[C@@H](CO)O2)c(=O)[nH]c1=O` [ZIDOVUDINE] registered an MIC of 0.001 µg/mL (≈ 0.00374 µM).
Regarding `Cc1cn([C@@H]2C[C@H](CO)[C@@H](O)C2)c(=O)[nH]c1=O`, the MIC with HeLa is above 100 µg/mL; against Human alphaherpesvirus 1 [2] it was 0.2 µg/mL (≈ 0.832 µM); against Human alphaherpesvirus 1 [3] it was 40 µg/mL (≈ 166 µM); in the test on Human alphaherpesvirus 2, 2 µg/mL (≈ 8.32 µM); in test [5], above 200 µg/mL; in the test with Vero, above 100 µg/mL. The MIC with Vaccinia virus is 2 µg/mL (≈ 8.32 µM).
Take `Cc1cn(C2CC3OCC2C3CO)c(=O)[nH]c1=O` (stereo unspecified): the MIC was above 250 µg/mL in [1]; above 400 µg/mL with HeLa; above 400 µg/mL in the test with Human alphaherpesvirus 1 [2]; above 400 µg/mL with Human alphaherpesvirus 1 [3]; above 400 µg/mL against Human alphaherpesvirus 2; above 400 µg/mL in test [5]. Also, the MIC against Vero and in the test with Vaccinia virus was above 400 µg/mL each time.
`O=c1[nH]c(=O)n([C@H]2C[C@H](O)[C@@H](CO)O2)cc1/C=C/Br` [BRIVUDINE]: the MIC in the test on HeLa was above 400 µg/mL; in the test on Human alphaherpesvirus 1 [2] it was 0.02 µg/mL (≈ 0.06 µM); in the test on Human alphaherpesvirus 1 [3], above 200 µg/mL; against Human alphaherpesvirus 2 it was 7 µg/mL (≈ 21 µM); in test [5], above 400 µg/mL; against Vero, above 400 µg/mL. The same compound returned an MIC in the test on Vaccinia virus of 20 µg/mL (≈ 60 µM).
Take `Nc1nccc2c1ncn2[C@@H]1C[C@H](CO)[C@@H](O)[C@H]1O` [3-DEAZAARISTEROMYCIN A]: the MIC in the test on HeLa is 2 µg/mL (≈ 7.57 µM); with Human alphaherpesvirus 1 [2], above 400 µg/mL; against Human alphaherpesvirus 1 [3] it was 150 µg/mL (≈ 568 µM); against Human alphaherpesvirus 2 it was above 400 µg/mL; in test [5] it was 0.7 µg/mL (≈ 2.65 µM); with Vero, 0.7 µg/mL (≈ 2.65 µM). In the test with Vaccinia virus, this compound gave an MIC of 0.7 µg/mL (≈ 2.65 µM).
